According to the supplement of paper PMC10307832:

What was measured:
Assay in all cases: relative viability (nuclei count vs DMSO), 5 days (fraction); higher = more cells survive
NCI-H23 = test system: NCI-H23
How it was run: (§1)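 Relative viability is defined as nuclei in treated wells over nuclei in vehicle wells. Duplicate plates were run and medians reported. Lung cancer cell lines in 1536-well plates were dosed by pin tool one day after seeding, with one drug or with a fixed anchor-drug dose plus five library-drug doses (not always all listed) in √10 steps, and nuclei were counted after 5 days.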

HARA = test system: HARA
How it was run: as §1

201T = test system: 201T
How it was run: as §1

NCI-H358 = test system: NCI-H358
How it was run: as §1

HCC-827 = test system: HCC-827
How it was run: as §1

SK-MES-1 = test system: SK-MES-1
How it was run: as §1

NCI-H596 = test system: NCI-H596
How it was run: as §1

SW 900 = test system: SW 900
How it was run: as §1

NCI-H1437 = test system: NCI-H1437
How it was run: as §1

NCI-H441 = test system: NCI-H441
How it was run: as §1

NCI-H1975 = test system: NCI-H1975
How it was run: as §1

COR-L 105 = test system: COR-L 105
How it was run: as §1

COR-L23 = test system: COR-L23
How it was run: as §1

HCC-15 = test system: HCC-15
How it was run: as §1

HCC-44 = test system: HCC-44
How it was run: as §1

NCI-H1666 = test system: NCI-H1666
How it was run: as §1

NCI-H838 = test system: NCI-H838
How it was run: as §1

LK-2 = test system: LK-2
How it was run: as §1

NCI-H650 = test system: NCI-H650
How it was run: as §1

A-427 = test system: A-427
How it was run: as §1

EKVX = test system: EKVX
How it was run: as §1

BEN = test system: BEN
How it was run: as §1

Oc1nc(-c2ccc(C(F)(F)F)cc2)nc2c1CSCC2 [XAV939] + Cc1cc(Nc2cc(N3CCN(C)CC3)nc(Sc3ccc(NC(=O)C4CC4)cc3)n2)n[nH]1 [Tozasertib] (partner 0.1 µM)
relative viability (NCI-H23; first compound 0.08 µM): 0.403 | relative viability (NCI-H23; first compound 0.253 µM): 0.373 | relative viability (NCI-H23; first compound 0.8 µM): 0.343 | relative viability (NCI-H23; first compound 2.53 µM): 0.357 | relative viability (HARA; first compound 0.08 µM): 0.107 | relative viability (HARA; first compound 0.253 µM): 0.0774 | relative viability (HARA; first compound 0.8 µM): 0.102 | relative viability (HARA; first compound 2.53 µM): 0.103 | relative viability (201T; first compound 0.08 µM): 0.99 | relative viability (201T; first compound 0.253 µM): 0.763 | relative viability (201T; first compound 0.8 µM): 0.812 | relative viability (201T; first compound 2.53 µM): 0.755 | relative viability (NCI-H358; first compound 0.08 µM): 0.112 | relative viability (NCI-H358; first compound 0.253 µM): 0.0945 | relative viability (NCI-H358; first compound 0.8 µM): 0.0995 | relative viability (NCI-H358; first compound 2.53 µM): 0.0987 | relative viability (HCC-827; first compound 0.08 µM): 0.423 | relative viability (HCC-827; first compound 0.253 µM): 0.387 | relative viability (HCC-827; first compound 0.8 µM): 0.414 | relative viability (HCC-827; first compound 2.53 µM): 0.384 | relative viability (SK-MES-1; first compound 0.08 µM): 0.956 | relative viability (SK-MES-1; first compound 0.253 µM): 0.816 | relative viability (SK-MES-1; first compound 0.8 µM): 0.807 | relative viability (SK-MES-1; first compound 2.53 µM): 0.768 | relative viability (NCI-H596; first compound 0.08 µM): 0.915 | relative viability (NCI-H596; first compound 0.253 µM): 0.798 | relative viability (NCI-H596; first compound 0.8 µM): 1.07 | relative viability (NCI-H596; first compound 2.53 µM): 0.939 | relative viability (SW 900; first compound 0.08 µM): 0.663 | relative viability (SW 900; first compound 0.253 µM): 0.549 | relative viability (SW 900; first compound 0.8 µM): 0.535 | relative viability (SW 900; first compound 2.53 µM): 0.323 | relative viability (NCI-H1437; first compound 0.08 µM): 0.419 | relative viability (NCI-H1437; first compound 0.253 µM): 0.335 | relative viability (NCI-H1437; first compound 0.8 µM): 0.443 | relative viability (NCI-H1437; first compound 2.53 µM): 0.414 | relative viability (NCI-H441; first compound 0.08 µM): 0.818 | relative viability (NCI-H441; first compound 0.253 µM): 0.573 | relative viability (NCI-H441; first compound 0.8 µM): 0.71 | relative viability (NCI-H441; first compound 2.53 µM): 0.601 | relative viability (NCI-H1975; first compound 0.08 µM): 0.729 | relative viability (NCI-H1975; first compound 0.253 µM): 0.736 | relative viability (NCI-H1975; first compound 0.8 µM): 0.683 | relative viability (NCI-H1975; first compound 2.53 µM): 0.514 | relative viability (COR-L 105; first compound 0.08 µM): 0.358 | relative viability (COR-L 105; first compound 0.253 µM): 0.374 | relative viability (COR-L 105; first compound 0.8 µM): 0.349 | relative viability (COR-L 105; first compound 2.53 µM): 0.343 | relative viability (COR-L23; first compound 0.08 µM): 0.194 | relative viability (COR-L23; first compound 0.253 µM): 0.195 | relative viability (COR-L23; first compound 0.8 µM): 0.225 | relative viability (COR-L23; first compound 2.53 µM): 0.154 | relative viability (HCC-15; first compound 0.08 µM): 0.452 | relative viability (HCC-15; first compound 0.253 µM): 0.382 | relative viability (HCC-15; first compound 0.8 µM): 0.394 | relative viability (HCC-15; first compound 2.53 µM): 0.368 | relative viability (HCC-44; first compound 0.08 µM): 1.46 | relative viability (HCC-44; first compound 0.253 µM): 0.799 | relative viability (HCC-44; first compound 0.8 µM): 0.996 | relative viability (HCC-44; first compound 2.53 µM): 0.789 | relative viability (NCI-H1666; first compound 0.08 µM): 0.576 | relative viability (NCI-H1666; first compound 0.253 µM): 0.565 | relative viability (NCI-H1666; first compound 0.8 µM): 0.599 | relative viability (NCI-H1666; first compound 2.53 µM): 0.582 | relative viability (NCI-H838; first compound 0.08 µM): 0.274 | relative viability (NCI-H838; first compound 0.253 µM): 0.259 | relative viability (NCI-H838; first compound 0.8 µM): 0.276 | relative viability (NCI-H838; first compound 2.53 µM): 0.209 | relative viability (LK-2; first compound 0.08 µM): 0.185 | relative viability (LK-2; first compound 0.253 µM): 0.171 | relative viability (LK-2; first compound 0.8 µM): 0.157 | relative viability (LK-2; first compound 2.53 µM): 0.172 | relative viability (NCI-H650; first compound 0.08 µM): 0.883 | relative viability (NCI-H650; first compound 0.253 µM): 0.691 | relative viability (NCI-H650; first compound 0.8 µM): 0.646 | relative viability (NCI-H650; first compound 2.53 µM): 0.611 | relative viability (A-427; first compound 0.08 µM): 0.238 | relative viability (A-427; first compound 0.253 µM): 0.164 | relative viability (A-427; first compound 0.8 µM): 0.19 | relative viability (A-427; first compound 2.53 µM): 0.193 | relative viability (EKVX; first compound 0.08 µM): 0.47 | relative viability (EKVX; first compound 0.253 µM): 0.36 | relative viability (EKVX; first compound 0.8 µM): 0.372 | relative viability (EKVX; first compound 2.53 µM): 0.29 | relative viability (BEN; first compound 0.08 µM): 0.579 | relative viability (BEN; first compound 0.253 µM): 0.451 | relative viability (BEN; first compound 0.8 µM): 0.542 | relative viability (BEN; first compound 2.53 µM): 0.444
